Tests used:
Hyaluronidase [1] = assay: Enzymatic degradation study (SEC-MALS soluble HA assay); assay type: biochemical
Text: The HA filling gels prepared in Examples 1 and 2, were further evaluated for resistance to enzymatic degradation by using a SEC-MALS (Size Exclusion Multi-Angle Light Scattering) based soluble HA assay. This assay was applied to quantify degradation by evaluating the soluble HA content in each sample (defined as the portion of the gel that can pass through a 0.2-1.0 μm filter). The difference in the soluble HA content, between an enzymatically degraded sample and a control sample was used to quantify the extent of degradation for each HA formulation.
The SEC-MALS tests were performed using an Agilent size exclusion chromatography system equipped with Wyatt light scattering and refractive index units. Hyaluronidase (0.1-10 mg) was added to each HA formulation, incubated for 10-250 mins at 37° C. followed by addition of 0.1 ml of a 0.8 M potassium tetraborate solution and heating at 100° C. for 10 mins. The samples were diluted in PBS, filtered through a 0.2-1.0 μm filter and injected into the SEC-MALS system. The process was repeated for each HA formulation, omitting the enzyme addition, to prepare a control sample. The soluble HA content of the enzymatically degraded sample, the control sample as well as the difference between the two is summarized in FIG. 3.

Hyaluronidase [2] = assay: Enzymatic degradation study (Morgan-Elson colorimetric assay); assay type: biochemical; settings: generally an order of magnitude less TA gives the same inhibition as CSA
Experimental: The HA filling gels prepared in Examples 1 and 2, were evaluated for resistance to enzymatic degradation using the Morgan-Elson colorimetric assay. This assay was applied to estimate the extend of enzymatic degradation by measuring changes in the molecular weight of the HA chains.
Hyaluronidase (0.1-10 mg) was added to each HA formulation, incubated for 10-250 mins at 37° C. followed by addition of 0.1 mL of a 0.8 M potassium tetraborate solution and heating at 100° C. for 10 min. The samples were supplemented with 3 mL of a 10% (wt) p-dimethylaminobenzaldehyde solution in acetic acid and incubated at 37° C. for 10-120 mins. The process was repeated for each HA formulation, omitting the enzyme addition, to prepare a control sample. The change in the optical density (OD) at 585 nm between the enzymatically degraded sample and the control sample was used to quantify the extent of degradation for each formulation.

O=C(OC[C@H]1O[C@@H](OC(=O)c2cc(O)c(O)c(OC(=O)c3cc(O)c(O)c(O)c3)c2)[C@H](OC(=O)c2cc(O)c(O)c(OC(=O)c3cc(O)c(O)c(O)c3)c2)[C@@H](OC(=O)c2cc(O)c(O)c(OC(=O)c3cc(O)c(O)c(O)c3)c2)[C@@H]1OC(=O)c1cc(O)c(O)c(OC(=O)c2cc(O)c(O)c(O)c2)c1)c1cc(O)c(O)c(OC(=O)c2cc(O)c(O)c(O)c2)c1 [TA, tannic acid]
inhibitory activity of TA compared with CSA (Hyaluronidase [1]): significantly higher than that of CSA | inhibitory activity of TA compared with CSA (Hyaluronidase [2]): higher inhibitory activity than CSA

From patent US8394783B2, “Polysaccharide gel formulation having multi-stage bioactive agent delivery” (Allergan, Inc., priority 2007, dated 2013)
